Measured values published in US10435375B2, “CXCR4 chemokine receptor modulators” (NORTHWESTERN UNIVERSITY, priority 2015, dated 2019).
“Also recorded” adds a separate entry of the source.

Experiments:
CXCR4-YFP = biological target: T1, CXCR4-YFP (Homo sapiens, UniProt P61073); test: Internalization of YFP-tagged CXCR4 receptors in HEK293 cells; assay type: cell-based; conditions: for inhibition of NUCC-390-induced CXCR4-YFP internalization: AMD3100 1 μM; for CXCR4-YFP receptor internalization: 2 hours, SDF-1 100 nM, NUCC-390 10 μM
T1 construct: expressed in transfected cells; host or cells: HEK293 cells

CXCR4 [1] = biological target: T2, CXCR4 (Homo sapiens, UniProt P61073); test: Calcium imaging ((Ca)i mobilization) assay, fura-2, C8161 melanoma cells; assay type: cell-based; parameters: human melanoma cell line C8161 was initially used, which expresses numerous human CXCR4 receptors; endogenous in cells; host or cells: C8161 human melanoma cells; conditions: for effect on SDF-1-induced (Ca)i response: test compounds 10 μM; for Pharmacology: Table 2, agonist or antagonist; for IC50: multiple concentrations, dose-response, read-out: estimated IC50 (antagonism of SDF-1 (Ca)i response); for Ca^2+ Assay: Table 1, calcium imaging behavior; for compound's (Ca)i response in presence of CXCR4 antagonist AMD3100: AMD3100 1 μM where stated; for own (Ca)i response (agonist effect): compounds 10 μM where stated, SDF-1 100 nM
Description: The initial assay for examining the activity of different molecules was based on the fact that activation of CXCR4 receptors produces an increase in the intracellular free Ca^2+ concentration (Ca)i. This signal can easily be observed using a fluorescent Ca^2+ sensing dye such as fura-2. The quantitative nature of this assay makes it ideal for screening purposes. Moreover, the assay can also distinguish potential antagonists from potential agonists. The aggressive human melanoma cell line C8161 was initially used, which expresses numerous human CXCR4 receptors and produces strong (Ca)I signals when stimulated with SDF-1 (FIG. 3). In the assay, cells were usually stimulated twice with SDF-1. […] To test a drug, the compound in question was usually added prior to the second stimulation with SDF-1. At this point it was possible to observe whether the compound itself acted as an agonist by giving its own response or if it reduced the magnitude of the second response to SDF-1. […] Each of the four antagonists were then assayed at multiple concentrations to obtain a dose-response relationship and an estimated IC50. Antagonists NUCC-388, 397, 392, and 51420 had IC50 values of 0.3 μM, 3 μM, 1 μM, and 1 μM respectively.

C8161 cells = test: Chemotaxis of C8161 cells, Boyden chamber assay; assay type: cell-based, human; conditions: SDF-1 100 nM, NUCC-390 10 μM, p<0.01, n=6
Description: Chemokines are well known for their ability to stimulate chemotaxis of leukocytes and stem cells. In order to further establish the biological activity of the CXCR4 agonists, the ability of SDF-1 and NUCC-390 to produce chemotaxis of C8161 cells was compared using a Boyden chamber assay.

U937 cells = test: Cell viability assay, U937 cells, with Ara-C; assay type: cell-based
Experimental: FIG. 20. Cell viability assay with agonist NUCC-390 and known chemotherapeutics. The first bar is viability no NUCC-390 or Ara-C. Otherwise, the concentration of NUCC-390 was maintained at 50 μM in all experiments. U937 cells were treated with NUCC-390 and the indicated concentration of Ara-C.

CXCR4 [2] = biological target: T2, CXCR4; test: ERK activation (pERK, Western blot) in C8161 cells; assay type: cell-based; parameters: human melanoma cell line C8161 was initially used, which expresses numerous human CXCR4 receptors; endogenous in cells; host or cells: C8161 human melanoma cells; conditions: SDF-1 100 nM, NUCC-390 10 μM, 30 min
Description: To further explore the agonist potential of compound NUCC-390, changes in signaling downstream of CXCR4 were examined. For these experiments, lysates were collected from treated C8161 cells and analyzed them using Western blot. […] That drug NUCC-390 has the capability of stimulating signaling activity downstream of CXCR4 receptors further supports the observation that NUCC-390 acts as a CXCR4 agonist.

CXCR4 [3] = biological target: T2, CXCR4; test: (Ca)i mobilization assay using CXCR4 expressing U87 cells; assay type: cell-based; parameters: host or cells: U87 glioblastoma cells
[4] = C8161 cells, listed as NUCC-390
[5] = C8161 cells, listed as NUCC-398

T2 sequence (P61073 whole entry): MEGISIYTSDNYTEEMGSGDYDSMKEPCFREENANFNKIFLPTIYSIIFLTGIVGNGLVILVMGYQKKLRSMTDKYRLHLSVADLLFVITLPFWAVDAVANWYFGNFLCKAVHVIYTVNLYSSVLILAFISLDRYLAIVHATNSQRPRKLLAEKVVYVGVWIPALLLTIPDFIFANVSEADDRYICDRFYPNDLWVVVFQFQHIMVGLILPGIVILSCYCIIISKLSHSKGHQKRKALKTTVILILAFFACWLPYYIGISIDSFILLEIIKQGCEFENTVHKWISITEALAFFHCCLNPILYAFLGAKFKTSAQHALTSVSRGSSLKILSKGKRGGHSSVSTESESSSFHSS
T1 sequence (P61073 whole entry): as above

| Molecule | effect on SDF-1-induced (Ca)i response (CXCR4 [1]; C8161 cells) | Pharmacology (CXCR4 [1]) | Ca^2+ Assay (CXCR4 [1]) | own (Ca)i response (agonist effect) (CXCR4 [1]; C8161 cells) | also measured |
| --- | --- | --- | --- | --- | --- |
| c1cc(CN2CCCNCCNCCCNCC2)ccc1CN1CCCNCCNCCCNCC1 [AMD3100, reference compound] | completely blocked stimulation with SDF-1; also recorded: blocked the effects of SDF-1 | – | – | – | inhibition of NUCC-390-induced CXCR4-YFP internalization (CXCR4-YFP): blocks internalization; inhibition of NUCC-390-induced CXCR4-YFP internalization (CXCR4-YFP; listed as AMD-3100): completely inhibited |
| Cc1ncsc1CCn1nc(C(=O)NC2CC2)c2c1CCN(Cc1ccc3c(c1)OCO3)C2 [NUCC-0000387] | – | Agonist | – | – | – |
| CN(C)CCNC1CCc2c(c(C(=O)N(C)Cc3ccccc3)nn2C)C1 (stereo not drawn) [NUCC-0000388] | – | Antagonist | Antagonist | – | inhibition of NUCC-390-induced CXCR4-YFP internalization (CXCR4-YFP): completely inhibited; inhibition of NUCC-390-induced (Ca)i response (CXCR4 [1]; C8161 cells): inhibited; IC50 (CXCR4 [1]; C8161 cells): 300 nM; effect on SDF-1-induced (Ca)i response (CXCR4 [1]; C8161 cells, listed as NUCC-388): antagonized the effects of SDF-1; also recorded: blocks the effect of SDF-1; also recorded: completely inhibited the second addition of SDF-1 |
| CCCn1nc(C(=O)N2CCCCC2)c2c1CCC(NCCc1ccncc1)C2 (stereo not drawn) [NUCC-0000390, Piperidin-1-yl(1-propyl-5-((2-(pyridin-4-yl)ethyl)amino)-4,5,6,7-tetrahydro-1H-indazol-3-yl)methanone] | – | Agonist | Agonist | – | CXCR4-YFP receptor internalization (CXCR4-YFP): causes most of the CXCR4 receptor to become internalized; chemotaxis (C8161 cells): matched by the effects of NUCC-390; effect on cell viability, compound alone (U937 cells; NUCC-390 50 μM): only a modest effect by itself; effect on cytotoxicity of Ara-C in combination (U937 cells; NUCC-390 50 μM plus Ara-C): significantly increased the cytotoxicity of Ara-C; compound's (Ca)i response in presence of CXCR4 antagonist AMD3100 (CXCR4 [1]; [4]): completely inhibited; also recorded: completely blocked by AMD3100; own (Ca)i response (agonist effect) (CXCR4 [1]; [4]): produced their own response; also recorded: effects were similar to those produced by SDF-1; also recorded: strong (Ca)i response; also recorded: produced agonist effects; level of phosphorylated ERK (pERK) (CXCR4 [2]): increased levels of pERK; also recorded: Increase in pERK |
| COC(=O)c1c(NC(=O)C2CCOC2)c2cc(NCC(C)Cc3ccc4c(c3)OCO4)cnc2n1CCCc1ccccc1 (stereo not drawn) [NUCC-0000392] | antagonized the effects of SDF-1 | Antagonist | – | – | IC50 (CXCR4 [1]; C8161 cells): 1000 nM |
| COC(=O)c1c(NC(=O)[C@H]2CCOC2)c2cc(NC[C@H](C)Cc3ccc4c(c3)OCO4)cnc2n1CCCc1ccccc1 [NUCC-0000392] | – | – | Antagonist | – | – |
| COCCn1c(C(=O)OC)c(NC(=O)CCc2ccccc2)c2cc(NCCC(C)c3ccccc3)cnc21 (stereo not drawn) [NUCC-0000393] | – | Agonist | – | – | – |
| COCCNC(=O)c1nn(CCC(C)C)c2c1CN(Cc1ncc[nH]1)CC2 [NUCC-0000398, 5-((1H-imidazol-2-yl)methyl)-1-isopentyl-N-(2-methoxyethyl)-4,5,6,7-tetrahydro-1H-pyrazolo(4,3-c)pyridine-3-carboxamide] | – | Agonist | Agonist | – | compound's (Ca)i response in presence of CXCR4 antagonist AMD3100 (CXCR4 [1]; [5]): completely inhibited; also recorded: inhibited by AMD3100; own (Ca)i response (agonist effect) (CXCR4 [1]; [5]): produced their own response; also recorded: robust agonist activity; also recorded: Agonist effects |
| CCCn1nc(C(=O)N2CCCCC2)c2c1CCC(NCCc1cccnc1)C2 (stereo not drawn) [NUCC-0054118, Piperidin-1-yl(1-propyl-5-((2-(pyridin-3-yl)ethyl)amino)-4,5,6,7-tetrahydro-1H-indazol-3-yl)methanone] | – | Agonist | Antagonist | robust agonist activity | compound's (Ca)i response in presence of CXCR4 antagonist AMD3100 (CXCR4 [1]; C8161 cells): inhibited by AMD3100 |
| CCCn1nc(C(=O)N2CCCCC2)c2c1CCC(NCCCN1CCCC1=O)C2 (stereo not drawn) [NUCC-0054120, 1-(3-((3-(Piperidine-1-carbonyl)-1-propyl-4,5,6,7-tetrahydro-1H-indazol-5-yl)amino)propyl)pyrrolidin-2-one] | antagonized the effects of SDF-1 | Antagonist | Agonist | – | IC50 (CXCR4 [1]; C8161 cells): 1000 nM |
| CCCn1nc(C(=O)N2CCCCC2)c2c1CCC(NCCCN1CCOCC1)C2 (stereo not drawn) [NUCC-0054127] | – | Agonist | Agonist | robust agonist activity | compound's (Ca)i response in presence of CXCR4 antagonist AMD3100 (CXCR4 [1]; C8161 cells): inhibited by AMD3100 |
| Cn1nc(C(=O)N2CCCCC2)c2c1CCC(NCCCN1CCOCC1)C2 (stereo not drawn) [NUCC-0176288] | blocks the effect of SDF-1 | Antagonist | – | – | own (Ca)i response (agonist effect) (CXCR4 [3]): robust calcium response |
| Cn1nc(C(=O)N2CCCCC2)c2c1CCC(NCc1ccc(F)cc1)C2 (stereo not drawn) [NUCC-0176290] | blocks the effect of SDF-1 | Antagonist | – | robust calcium response | – |
| CCCn1nc(C(=O)N(C)Cc2ccccc2)c2c1CCC(NCCc1ccncc1)C2 (stereo not drawn) [NUCC-0176299] | blocks the effect of SDF-1 | Antagonist | – | – | own (Ca)i response (agonist effect) (CXCR4 [3]): robust calcium response |
| CCCn1nc(C(=O)N(C)Cc2ccccc2)c2c1CCC(NCCCN1CCOCC1)C2 (stereo not drawn) [NUCC-0176301] | – | Agonist | – | robust calcium response | compound's (Ca)i response in presence of CXCR4 antagonist AMD3100 (CXCR4 [1]; C8161 cells): prevented calcium signaling |
| CCCn1nc(C(=O)N(C)Cc2ccccc2)c2c1CCC(NCc1ccc(F)cc1)C2 (stereo not drawn) [NUCC-0176303] | – | Agonist | – | robust calcium response | – |
| CCCn1nc(C(=O)N2CCCCC2)c2c1CCC(NCc1ccc(F)cc1)C2 (stereo not drawn) [NUCC-0176306] | – | Agonist | – | robust calcium response | compound's (Ca)i response in presence of CXCR4 antagonist AMD3100 (CXCR4 [1]; C8161 cells): prevented calcium signaling |
| CCCn1nc(C(=O)N(C)C)c2c1CCC(NCCc1cccnc1)C2 (stereo not drawn) [NUCC-0176308] | – | Agonist | – | robust calcium response | compound's (Ca)i response in presence of CXCR4 antagonist AMD3100 (CXCR4 [1]; C8161 cells): prevented calcium signaling |
| CCCn1nc(C(=O)N(C)C)c2c1CCC(NCCCN1CCCC1=O)C2 (stereo not drawn) [NUCC-0176311] | – | Agonist | – | robust calcium response | – |
| SDF-1: cognate agonist for CXCR4, the 93 amino acid protein CXCL12 (SDF-1) | – | – | – | two strong (Ca)i responses | CXCR4-YFP receptor internalization (CXCR4-YFP): pronounced internalization of CXCR4-YFP; also recorded: causes most of the CXCR4 receptor to become internalized; chemotaxis (C8161 cells): robust chemotactic activity; level of phosphorylated ERK (pERK) (CXCR4 [2]): increased levels of phosphorylated ERK; also recorded: Increase in pERK |
